According to PubChem BioAssay (NCI):
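96-well plates; 48 h exposure; 5 concentrations. Endpoints by linear interpolation between flanking doses. Not reached: highest tested concentration assigned. TGI denotes the concentration required for complete inhibition of growth.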

Experiments:
Assay in all cases: NCI tumour cell line growth inhibition, 48 h
786-0 renal = system: 786-0 renal
A498 renal = system: A498 renal
A549 NSCLC = system: A549 NSCLC
ACHN renal = system: ACHN renal
CAKI-1 renal = system: CAKI-1 renal
CCRF-CEM leukemia = system: CCRF-CEM leukemia
COLO 205 colon = system: COLO 205 colon
DLD-1 colon = system: DLD-1 colon
DMS 114 small cell lung = system: DMS 114 small cell lung
DMS 273 small cell lung = system: DMS 273 small cell lung
EKVX NSCLC = system: EKVX NSCLC
HCT-116 colon = system: HCT-116 colon
HCT-15 colon = system: HCT-15 colon
HL-60(TB) leukemia = system: HL-60(TB) leukemia
HOP-18 NSCLC = system: HOP-18 NSCLC
HOP-62 NSCLC = system: HOP-62 NSCLC
HOP-92 NSCLC = system: HOP-92 NSCLC
HT29 colon = system: HT29 colon
IGROV1 ovarian = system: IGROV1 ovarian
K-562 leukemia = system: K-562 leukemia
KM12 colon = system: KM12 colon
KM20L2 colon = system: KM20L2 colon
LXFL 529 NSCLC = system: LXFL 529 NSCLC
M14 melanoma = system: M14 melanoma
M19-MEL melanoma = system: M19-MEL melanoma
MALME-3M melanoma = system: MALME-3M melanoma
MOLT-4 leukemia = system: MOLT-4 leukemia
NCI-H226 lung = system: NCI-H226 lung
NCI-H23 lung = system: NCI-H23 lung
NCI-H460 lung = system: NCI-H460 lung
NCI-H522 lung = system: NCI-H522 lung
OVCAR-3 ovarian = system: OVCAR-3 ovarian
OVCAR-4 ovarian = system: OVCAR-4 ovarian
OVCAR-8 ovarian = system: OVCAR-8 ovarian
RPMI-8226 leukemia = system: RPMI-8226 leukemia
SF-268 CNS = system: SF-268 CNS
SF-295 CNS = system: SF-295 CNS
SF-539 CNS = system: SF-539 CNS
SK-MEL-2 melanoma = system: SK-MEL-2 melanoma
SK-MEL-28 melanoma = system: SK-MEL-28 melanoma
SK-MEL-5 melanoma = system: SK-MEL-5 melanoma
SK-OV-3 ovarian = system: SK-OV-3 ovarian
SN12C renal = system: SN12C renal
SNB-19 CNS = system: SNB-19 CNS
SNB-75 CNS = system: SNB-75 CNS
SNB-78 CNS = system: SNB-78 CNS
SR leukemia = system: SR leukemia
SW-620 colon = system: SW-620 colon
TK-10 renal = system: TK-10 renal
U251 CNS = system: U251 CNS
UACC-257 melanoma = system: UACC-257 melanoma
UACC-62 melanoma = system: UACC-62 melanoma
UO-31 renal = system: UO-31 renal
XF 498 CNS = system: XF 498 CNS

Measured: TGI

N#CC(N)(C(=O)CCC(=O)Nc1cccc(Cl)c1)c1ccc(Cl)cc1 (centres undefined)
> 100 µM: all assays above
